Test results taken from US11389469B2, “Targeting NAD+ to treat chemotherapy and radiotherapy induced cognitive impairment, neuropathies and inactivity” (NewSouth Innovations Pty Ltd, priority 2015, dated 2022).

Key:
Male Sprague-Dawley rats [1] = assay: Voluntary wheel running after doxorubicin; format: in vivo, rat
Experimental: (§1) FIGS. 1A-1D. […] A) Voluntary wheel running, followed by B) the von Frey test for mechanical allodynia (pain) at day 3. At day 8, C) short term spatial memory was assessed using the novel location recognition test. At day 9, D) short term object memory was assessed using the novel object recognition test. n=8, *p<0.05, **p<0.01, ****p<0.0001. Dunn's multiple comparison test, Kruskal Wallis one-way ANOVA.
(§2) In this Example, the strategy is to raise NAD^+ levels during chemotherapy treatment by administering animals with a cell permeable NAD^+ precursor known as nicotinamide mononucleotide (NMN). […] As expected, a single dose of doxorubicin caused neurocognitive defects including reduced voluntary wheel running, increased pain, and reduced short term spatial memory (FIG. 1).

Male Sprague-Dawley rats [2] = assay: von Frey test for mechanical allodynia (pain) after doxorubicin; format: in vivo, rat
Experimental: as §1, §2

Male Sprague-Dawley rats [3] = assay: Novel location recognition test (short term spatial memory) after doxorubicin; format: in vivo, rat
Experimental: as §1, §2

muscle mitochondria = assay: Mitochondrial respiration in Clarke type electrode; conditions: aged NMN treated mice, preliminary data FIG. 3C
elderly mice = conditions: reference [17]; cited from earlier work

voluntary wheel running, effect of doxorubicin (Male Sprague-Dawley rats [1]; single i.p. dose of doxorubicin (4 mg/kg), male SD rats) | pain (mechanical allodynia, von Frey test), effect of doxorubicin (Male Sprague-Dawley rats [2]; single i.p. dose of doxorubicin (4 mg/kg), day 3, male SD rats) | short term spatial memory (novel location recognition test), effect of doxorubicin (Male Sprague-Dawley rats [3]; single i.p. dose of doxorubicin (4 mg/kg), day 8, male SD rats) | Compound | effect of NMN on doxorubicin-reduced voluntary wheel running (Male Sprague-Dawley rats [1]; NMN in drinking water (500 mg/L) 24 hr prior and subsequent, plus 200 mg/kg co-administered with doxorubicin 4 mg/kg i.p.) | effect of NMN on doxorubicin-increased pain (mechanical allodynia, von Frey) (Male Sprague-Dawley rats [2]; NMN in drinking water (500 mg/L) plus 200 mg/kg co-administered with doxorubicin 4 mg/kg i.p., day 3) | effect of NMN on doxorubicin-reduced short term spatial memory (novel location recognition) (Male Sprague-Dawley rats [3]; NMN in drinking water (500 mg/L) plus 200 mg/kg co-administered with doxorubicin 4 mg/kg i.p., day 8) | mitochondrial dysfunction (respiratory capacity of muscle mitochondria) (muscle mitochondria) | metabolism and aspects of ageing (elderly mice)
– | – | – | Nicotinamide Mononucleotide [NMN] | reduced the effects of doxorubicin | reduced the effects of doxorubicin | reduced the effects of doxorubicin | reverse | improve metabolism and reverse aspects of ageing
reduced | increased | reduced | COc1cccc2c1C(=O)c1c(O)c3c(c(O)c1C2=O)C[C@@](O)(C(=O)CO)C[C@@H]3O[C@H]1C[C@H](N)[C@H](O)[C@H](C)O1 [doxorubicin, reference compound] | – | – | – | – | –
– | – | – | NC(=O)c1ccc[n+]([C@@H]2O[C@H](CO)[C@@H](O)[C@H]2O)c1 [NR, Nicotinamide Riboside] | – | – | – | – | improve metabolism and reverse aspects of ageing
